Reference: patent US8124647B2 (priority 2002, dated 2012)

Legend:
human androgen receptor [1] = molecular target: T1, human androgen receptor (Homo sapiens, UniProt P10275); assay: androgenic activity (EC50 and intrinsic activity), transactivation bioassay in CHO-AR-pMMTV-LUC cells (Table 4); format: cell-based
T1 construct: expressed in transfected cells; host or cells: CHO cells, cell line CHO-AR-pMMTV-LUC 1G12-A5-CA
T1 sequence (P10275 1-920): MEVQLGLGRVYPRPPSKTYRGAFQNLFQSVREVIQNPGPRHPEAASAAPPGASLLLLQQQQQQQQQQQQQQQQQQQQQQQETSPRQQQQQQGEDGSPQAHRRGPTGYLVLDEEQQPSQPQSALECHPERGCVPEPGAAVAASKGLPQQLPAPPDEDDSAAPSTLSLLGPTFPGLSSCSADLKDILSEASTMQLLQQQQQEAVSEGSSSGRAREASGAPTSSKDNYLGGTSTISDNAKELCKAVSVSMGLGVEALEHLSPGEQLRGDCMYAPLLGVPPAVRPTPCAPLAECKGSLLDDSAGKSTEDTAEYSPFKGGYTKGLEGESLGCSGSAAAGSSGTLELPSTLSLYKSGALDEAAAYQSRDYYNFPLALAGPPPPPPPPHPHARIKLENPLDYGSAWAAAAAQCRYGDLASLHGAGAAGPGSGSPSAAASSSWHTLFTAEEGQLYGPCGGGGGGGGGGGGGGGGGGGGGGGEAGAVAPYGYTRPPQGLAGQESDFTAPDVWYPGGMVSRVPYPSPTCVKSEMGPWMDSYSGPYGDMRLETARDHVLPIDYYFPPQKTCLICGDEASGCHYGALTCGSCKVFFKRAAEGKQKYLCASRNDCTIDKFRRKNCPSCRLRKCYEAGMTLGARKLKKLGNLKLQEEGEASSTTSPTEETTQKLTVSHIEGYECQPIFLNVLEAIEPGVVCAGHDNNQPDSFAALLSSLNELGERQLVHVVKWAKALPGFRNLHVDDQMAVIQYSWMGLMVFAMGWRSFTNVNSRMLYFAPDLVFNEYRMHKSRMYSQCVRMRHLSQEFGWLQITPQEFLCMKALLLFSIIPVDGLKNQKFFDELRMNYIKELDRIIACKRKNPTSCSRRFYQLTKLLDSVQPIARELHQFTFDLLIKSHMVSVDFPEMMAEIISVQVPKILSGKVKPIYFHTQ
Description: (§1) Compounds were tested for their Androgen Receptor activity in a transactivation assay and in a binding assay.
(§2) The (anti-)androgenic activity of test compounds (EC50 and intrinsic activity) was determined in an in vitro bioassay of Chinese hamster ovary (CHO) cells stably transfected with the human androgen receptor expression plasmid and a reporter plasmid in which the MMTV-promoter is linked to the luciferase reporter gene. The cell-line CHO-AR-pMMTV-LUC 1G12-A5-CA is described in Schoonen et al. (2000), Journal of Steroid Biochemistry and Molecular Biology 74(4):213-222. The antiandrogenic activity of a test compound was determined by the inhibition of the transactivation via the androgen receptor of the enzyme luciferase in the presence of 1 nM DHT (5α-dihydrotestosterone, 17β-hydroxy-5α-androstan-3-one). Intrinsic activity of antiandrogenic activity was determined in the presence of the reference antiandrogen 2-Hydroxy-2-methyl-N-(4-nitro-3-trifluoromethyl-phenyl)-propionamide(Hydroxyflutamide), and set at 100%. For androgenic activity, maximal intrinsic activity in the presence of 100 nM DHT was set at 100%.

human androgen receptor [2] = molecular target: T1, human androgen receptor; assay: cell-based; conditions: in the presence of 1 nM DHT
Description: as §1, §2

[3] = androgenic activity, read-out: ago EC50
[4] = antiandrogenic activity, read-out: ant EC50
[5] = ant EC50, antiandrogenic activity

SMILES	EC50 (human androgen receptor [1]; [3])	EC50 (human androgen receptor [2]; [4])	EC50 (human androgen receptor [1]; ago EC50, androgenic activity)	EC50 (human androgen receptor [2]; [5])
O=[N+]([O-])c1ccccc1Sc1cn(Cc2cc(F)cc(F)c2)c2ccccc12 [Compound 52]	5 to 100 nM	> 10000 nM	–	–
COc1ccc2c(Sc3ccccc3[N+](=O)[O-])cn(Cc3c(C)noc3C)c2c1 [Compound 80]	< 1000 nM	< 1000 nM	–	–
CCN(CC)C(=O)c1ccc2c(Sc3ccccc3[N+](=O)[O-])cn(Cc3cc(F)cc(F)c3)c2c1 [Compound 32]	5 to 100 nM	< 1000 nM	–	–
COc1ccc2c(Sc3ccccc3[N+](=O)[O-])cn(Cc3cccc([N+](=O)[O-])c3)c2c1 [Compound 74]	–	–	< 5 nM	> 10000 nM
COc1ccc2c(Sc3ccccc3[N+](=O)[O-])cn(Cc3ccccc3F)c2c1 [Compound 5]	< 1000 nM	> 10000 nM	–	–
CCNC(=O)c1ccc2c(Sc3ccccc3[N+](=O)[O-])cn(Cc3cc(F)cc(F)c3)c2c1 [Compound 45]	< 5 nM	> 10000 nM	–	–
O=[N+]([O-])c1ccccc1Sc1cn(Cc2cc(F)cc(F)c2)c2cc(CO)ccc12 [Compound 24]	5 to 100 nM	> 10000 nM	–	–
COc1ccc2c(c1)c(Sc1ccccc1[N+](=O)[O-])cn2Cc1ccccc1 [Compound 91]	> 10000 nM	1000 to 10000 nM	–	–
COc1ccc2c(Sc3ccccc3[N+](=O)[O-])cn(Cc3cc(F)ccc3F)c2c1 [Compound 1]	5 to 100 nM	> 10000 nM	–	–
COc1ccc2c(Sc3ccccc3[N+](=O)[O-])cn(Cc3ccc(Cl)c(Cl)c3)c2c1 [Compound 14]	< 1000 nM	> 10000 nM	–	–
O=C(NC1CC1)c1ccc2c(Sc3ccccc3[N+](=O)[O-])cn(Cc3cc(F)cc(F)c3)c2c1 [Compound 44]	< 5 nM	> 10000 nM	–	–
O=[N+]([O-])c1ccccc1Sc1cn(Cc2cc(F)cc(F)c2)c2cc(Cl)ccc12 [Compound 25]	< 5 nM	> 10000 nM	–	–
COc1ccc2c(Sc3ccccc3[N+](=O)[O-])cn(Cc3ccc(F)cc3)c2c1 [Compound 83]	5 to 100 nM	> 10000 nM	–	–
COc1ccc2c(Sc3ccccc3[N+](=O)[O-])cn(Cc3cc(F)cc(C(F)(F)F)c3)c2c1 [Compound 69]	5 to 100 nM	> 10000 nM	–	–
COc1ccc2c(Sc3ccccc3[N+](=O)[O-])cn(Cc3ccc(Cl)s3)c2c1 [Compound 88]	5 to 100 nM	> 10000 nM	–	–
COC(=O)c1ccccc1Sc1cn(Cc2cc(F)cc(F)c2)c2cc(OC)ccc12 [Compound 19, 2-[1-(3,5-Difluoro-benzyl)-6-methoxy-1H-indol-3-ylsulfanyl]-benzoic acid methyl ester]	< 1000 nM	> 10000 nM	–	–
COc1ccc2c(Sc3ccccc3[N+](=O)[O-])cn(Cc3ccccc3C#N)c2c1 [Compound 4]	< 1000 nM	5 to 100 nM	–	–
O=[N+]([O-])c1ccccc1Sc1cn(Cc2cc(F)cc(F)c2)c2cc(Br)ccc12 [Compound 22]	5 to 100 nM	> 10000 nM	–	–
COc1cccc(Cn2cc(Sc3ccccc3[N+](=O)[O-])c3ccc(OC)cc32)c1 [Compound 72]	5 to 100 nM	> 10000 nM	–	–
COc1ccc2c(Sc3ccccc3[N+](=O)[O-])cn(Cc3cnc(Cl)s3)c2c1 [Compound 87]	5 to 100 nM	> 10000 nM	–	–
COc1ccc2c(Sc3ccccc3[N+](=O)[O-])cn(Cc3ccccc3C(F)(F)F)c2c1 [Compound 12]	< 1000 nM	> 10000 nM	–	–
CCCNC(=O)c1ccc2c(Sc3ccccc3[N+](=O)[O-])cn(Cc3cc(F)cc(F)c3)c2c1 [Compound 48]	5 to 100 nM	< 1000 nM	–	–
COc1ccc2c(Sc3ccccc3[N+](=O)[O-])cn(Cc3cccc(Cl)c3)c2c1 [Compound 67]	5 to 100 nM	> 10000 nM	–	–

SMILES	EC50 (human androgen receptor [1]; [3])	EC50 (human androgen receptor [2]; [4])	EC50 (human androgen receptor [1]; ago EC50, androgenic activity)	EC50 (human androgen receptor [2]; [5])
COc1ccc2c(Sc3cccc[n+]3[O-])cn(Cc3cc(F)cc(F)c3)c2c1 [Compound 66]	< 1000 nM	5 to 100 nM	–	–
COc1ccc2c(Sc3ccccc3[N+](=O)[O-])cn(Cc3cccc(C(F)(F)F)c3)c2c1 [Compound 78]	5 to 100 nM	> 10000 nM	–	–
COc1ccc2c(Sc3ccccc3[N+](=O)[O-])cn(Cc3ccc(C#N)cc3)c2c1 [Compound 82]	5 to 100 nM	> 10000 nM	–	–
CNC(=O)c1ccc2c(Sc3ccccc3[N+](=O)[O-])cn(Cc3cc(F)cc(F)c3)c2c1 [Compound 47, 1-(3,5-Difluoro-benzyl)-3-(2-nitro-phenylsulfanyl)-1H-indole-6-carboxylic acid methylamide]	< 5 nM	> 10000 nM	–	–
Nc1ccc2c(Sc3ccccc3[N+](=O)[O-])cn(Cc3cc(F)cc(F)c3)c2c1 [Compound 57, 1-(3,5-Difluoro-benzyl)-3-(2-nitro-phenylsulfanyl)-1H-indol-6-ylamine]	< 1000 nM	> 10000 nM	–	–
COc1ccc2c(Sc3ccccc3[N+](=O)[O-])cn(Cc3cccc([N+](=O)[O-])c3C)c2c1 [Compound 6]	–	> 10000 nM	< 1000 nM	–
COc1ccc2c(Sc3ccccc3[N+](=O)[O-])cn(Cc3cc(Cl)cc(Cl)c3)c2c1 [Compound 15]	5 to 100 nM	> 10000 nM	–	–
O=[N+]([O-])c1ccc2c(Sc3ccccc3[N+](=O)[O-])cn(Cc3cc(F)cc(F)c3)c2c1 [Compound 60]	–	–	< 5 nM	> 10000 nM
COc1ccc2c(Sc3ccccn3)cn(Cc3cc(F)cc(F)c3)c2c1 [Compound 65, 1-(3,5-Difluoro-benzyl)-6-methoxy-3-(pyridin-2-ylsulfanyl)-1H-indole]	5 to 100 nM	> 10000 nM	–	–
O=[N+]([O-])c1ccccc1Sc1cn(Cc2cc(F)cc(F)c2)c2cccc(Cl)c12 [Compound 54]	5 to 100 nM	> 10000 nM	–	–
O=[N+]([O-])c1ccccc1Sc1cn(Cc2cc(F)cc(F)c2)c2cccc(F)c12 [Compound 51]	< 5 nM	> 10000 nM	–	–
COc1ccc2c(Sc3ccccc3[N+](=O)[O-])cn(Cc3ccccc3[N+](=O)[O-])c2c1 [Compound 8]	–	–	5 to 100 nM	> 10000 nM
COc1ccc2c(Sc3ccccc3[N+](=O)[O-])cn(Cc3ccccc3)c2c1 [Compound 92]	< 5 nM	> 10000 nM	–	–
NC(=O)c1ccc2c(Sc3ccccc3[N+](=O)[O-])cn(Cc3cc(F)cc(F)c3)c2c1 [Compound 33, 1-(3,5-Difluoro-benzyl)-3(2-nitro-phenylsulfanyl)-1H-indole-6-carboxylic acid amide]	< 5 nM	> 10000 nM	–	–
O=C(NCc1ccccc1)c1ccc2c(Sc3ccccc3[N+](=O)[O-])cn(Cc3cc(F)cc(F)c3)c2c1 [Compound 43]	5 to 100 nM	< 1000 nM	–	–
O=C(Nc1ccc2c(Sc3ccccc3[N+](=O)[O-])cn(Cc3cc(F)cc(F)c3)c2c1)C(F)(F)F [Compound 59, N-[1-(3,5-Difluoro-benzyl)-3-(2-nitro-phenylsulfanyl)-1H-indol-6-yl]-2,2,2-trifluoro-acetamide]	< 5 nM	> 10000 nM	–	–
O=C(NCC1CC1)c1ccc2c(Sc3ccccc3[N+](=O)[O-])cn(Cc3cc(F)cc(F)c3)c2c1 [Compound 41]	< 5 nM	> 10000 nM	–	–
COc1ccc2c(Sc3ccccc3[N+](=O)[O-])cn(Cc3cccc(F)c3)c2c1 [Compound 71]	< 5 nM	> 10000 nM	–	–
COc1ccc2c(Sc3ccccc3[N+](=O)[O-])cn(Cc3cccc(C#N)c3)c2c1 [Compound 68]	< 5 nM	> 10000 nM	–	–
CN(C)C(=O)CNC(=O)c1ccc2c(Sc3ccccc3[N+](=O)[O-])cn(Cc3cc(F)cc(F)c3)c2c1 [Compound 40]	5 to 100 nM	> 10000 nM	–	–
COc1ccc2c(Sc3ccccc3[N+](=O)[O-])cn(Cc3cc(F)ccc3C(F)(F)F)c2c1 [Compound 70]	5 to 100 nM	> 10000 nM	–	–
COc1ccc(Cn2cc(Sc3ccccc3[N+](=O)[O-])c3ccc(OC)cc32)cc1 [Compound 84]	< 1000 nM	1000 to 10000 nM	–	–
COc1ccc2c(Sc3ccccc3[N+](=O)[O-])cn(Cc3ccc(C)cc3)c2c1 [Compound 85]	< 1000 nM	> 10000 nM	–	–
